Results on 7 substances are retold here after article PMC5577615, “Myticalins: A Novel Multigenic Family of Linear, Cationic Antimicrobial Peptides from Marine Mussels (Mytilus spp.)” (Marine Drugs, 2017).

Common to all, as to format: cell-based
Assay [1] deals with tested bacterial strains (Gram-positive and Gram-negative). The note with it: for antimicrobial activity / spectrum in words: tested Gram-positive and Gram-negative strains. The procedure: (§1) The following strains have been used in this study: Escherichia coli ATCC 25922, Staphylococcus aureus ATCC […], Vibrio anguillarum ATCC 43305, Pseudomonas aeruginosa ATCC 27853, Acinetobacter baumannii ATCC 19606, Bacillus subtilis ATCC 6051. Vibrio anguillarum ATCC 43305 was cultivated in tryptic soy broth (TSB, Becton Dickinson, Milan, Italy) implemented with 2% NaCl, all the other strains were grown in Müller-Hinton broth (MH, Becton Dickinson, Milan, Italy).
(§2) The minimum inhibiting concentration (MIC) of each myticalin synthetic peptide was calculated using the broth microdilution method. Briefly, twofold serial dilutions of each peptide were prepared in appropriate growth medium and aliquoted in the wells of a round-bottom microtiter plates (Sarstedt, Nümbrecht, Germany). An overnight culture of each bacterial strain was diluted 1:50 in fresh growth medium and grown to an OD600nm ≈ 0.3. Each well was then inoculated with a standardized inoculum in order to achieve, in a final total volume of 100 μL, a final test concentration of about 5 × 10^5 CFU/mL. The plate was then sealed to minimize evaporation and incubated at 37 °C for 24 h. The day after, the MIC was identified as the lowest concentration of the peptide that impaired any visible bacterial growth.

Assay [2] deals with Bacillus subtilis ATCC 6051. Nature of the assay: MIC, broth microdilution. As to the method: as §1, §2
Background: Broth dilution looks for growth in wells or tubes with falling amounts of substance.

The test system of assay [3] is Acinetobacter baumannii ATCC 19606. Nature of the assay: MIC, broth microdilution. As to the method: as §1, §2
Assay [4] concerns Staphylococcus aureus ATCC 25923. Nature of the assay: MIC, broth microdilution. As to the method:
as §1, §2

The test system of assay [5] is Escherichia coli ATCC 25922. Briefly: MIC, broth microdilution. As to the method: as §1, §2
For assay [6], the system named is Vibrio anguillarum ATCC 43305. Nature of the assay: MIC, broth microdilution. As to the method:
as §1, §2

The subject of assay [7] is Pseudomonas aeruginosa ATCC 27853. Nature of the assay: MIC, broth microdilution. The procedure: as §1, §2
The mark [8] stands for this setting: Bacillus subtilis ATCC 6051, Müller-Hinton broth, about 5 × 10^5 CFU/mL, 37 °C, 24 h, mode of four independent experiments.
Setting [9] is: Acinetobacter baumannii ATCC 19606, Müller-Hinton broth, about 5 × 10^5 CFU/mL, 37 °C, 24 h, mode of four independent experiments.
The mark [10] stands for this setting: Staphylococcus aureus ATCC 25923, Müller-Hinton broth, about 5 × 10^5 CFU/mL, 37 °C, 24 h, mode of four independent experiments.
The mark [11] stands for this setting: Escherichia coli ATCC 25922, Müller-Hinton broth, about 5 × 10^5 CFU/mL, 37 °C, 24 h, mode of four independent experiments.
[12] abbreviates: Vibrio anguillarum ATCC 43305, tryptic soy broth with 2% NaCl, about 5 × 10^5 CFU/mL, 37 °C, 24 h, mode of four independent experiments.
Setting [13] is: Pseudomonas aeruginosa ATCC 27853, Müller-Hinton broth, about 5 × 10^5 CFU/mL, 37 °C, 24 h, mode of four independent experiments.

Where no end group is shown, it is not given here.

Consider “WPRFPKPRKPTYPGPTYPGPTWPRPTWRRSATIDTEH [Myticalin D5]”, for which the “MIC toward all the tested bacterial strains” value in assay [1] (24 h) is greater than 32 µM. The “Minimal inhibitory concentration (MIC)” value is greater than 32 µM in assay [2] (ATCC 6051, 24 h); greater than 32 µM in assay [3] (ATCC 19606, 24 h); greater than 32 µM in assay [4] (ATCC 25923, 24 h); greater than 32 µM in assay [5] (ATCC 25922, 24 h); greater than 32 µM in assay [6] (ATCC 43305, 24 h); greater than 32 µM in assay [7] (ATCC 27853, 24 h).
With RRRRRFRRVIRRIRLPKYLTINTE [Myticalin C6], in assay [1], the “antimicrobial activity / spectrum in words” value is on record as “moderate antimicrobial activity”. The “Minimal inhibitory concentration (MIC)” value in assay [2] (ATCC 6051, 24 h) is 32 µM; in assay [3] (ATCC 19606, 24 h) it was 2 µM; in assay [4] (ATCC 25923, 24 h), 8 µM; in assay [5] (ATCC 25922, 24 h) it was 4 µM; in assay [6] (ATCC 43305, 24 h), greater than 32 µM; in assay [7] (ATCC 27853, 24 h), 32 µM.
“RRRRRYRYWRRGLTIQGRPKSLPLNTGD [Myticalin C9]”: the “antimicrobial activity / spectrum in words” value in assay [1] is “broad spectrum of activity”. The “Minimal inhibitory concentration (MIC)” value in assay [2] (ATCC 6051, 24 h) was 4 µM; in assay [3] (ATCC 19606, 24 h) it was 2 µM; in assay [4] (ATCC 25923, 24 h), 2 µM; in assay [5] (ATCC 25922, 24 h), 4 µM; in assay [6] (ATCC 43305, 24 h), greater than 32 µM; in assay [7] (ATCC 27853, 24 h), 8 µM.
In the case of “YSWPRMPRIPRLPRYPRYPRYPRWPRHPTIYA-NH2 [Myticalin A8]”, the “antimicrobial activity / spectrum in words” value in assay [1] is “broad spectrum of activity”. The “Minimal inhibitory concentration (MIC)” value in assay [2] (setting [8]) is 4 µM; in assay [3] (setting [9]) it was 1 µM; in assay [4] (setting [10]), 16 µM; in assay [5] (setting [11]), 1 µM; in assay [6] (setting [12]), greater than 32 µM; in assay [7] (setting [13]), 8 µM.
Regarding “WGRRWRIRIPRLPRPWPPRPKWPRSATINTDQ [Myticalin D2]”, the “antimicrobial activity / spectrum in words” value in assay [1] is listed as “broad spectrum of activity”. Also, the “Minimal inhibitory concentration (MIC)” value is 2 µM in assay [2] (ATCC 6051, 24 h); 2 µM in assay [3] (ATCC 19606, 24 h); 16 to 32 µM in assay [4] (ATCC 25923, 24 h); 4 µM in assay [5] (ATCC 25922, 24 h); greater than 32 µM in assay [6] (ATCC 43305, 24 h); 4 µM in assay [7] (ATCC 27853, 24 h).
With “LRWTPTPSYPRYPTRSRGSRWSR-NH2 [Myticalin B1]”, the “antimicrobial activity / spectrum in words” value in assay [1] was “moderate antimicrobial activity”. Also, the “Minimal inhibitory concentration (MIC)” value in assay [2] (ATCC 6051, 24 h) was 32 µM; in assay [3] (ATCC 19606, 24 h), 8 µM; in assay [4] (ATCC 25923, 24 h), greater than 32 µM; in assay [5] (ATCC 25922, 24 h), 8 to 16 µM; in assay [6] (ATCC 43305, 24 h), greater than 32 µM; in assay [7] (ATCC 27853, 24 h), greater than 32 µM.
In the case of “YSWPRMPRIPRLPRYPRYPRYPRWPRWPRQPTIYA-NH2 [Myticalin A5]”, the “Minimal inhibitory concentration (MIC)” value in assay [2] (setting [8]) is 4 µM; in assay [3] (setting [9]) it was 4 µM; in assay [4] (setting [10]), 8 to 16 µM; in assay [5] (setting [11]), 2 µM; in assay [6] (setting [12]), greater than 32 µM; in assay [7] (setting [13]), 4 to 8 µM.
